The values below come from patent publication US11186560B2, “Arthropod repellent chemicals” (The Regents of the University of California, priority 2015, dated 2021).

Assay [1] relates to Drosophila melanogaster. Nature of the assay: Drosophila melanogaster 2-choice trap assay. The conditions noted are these: compounds at 5% concentration; 48 hours; negative P.I. indicates repellency. The assay is classed as in vivo. The procedure: In a second type of assay, a Drosophila melanogaster 2-choice trap assay as described previously^4,6 was used with minor modifications. Traps were made with two 1.5 ml microcentrifuge tubes (USA Scientific) and 200 microliter pipette tips (USA Scientific), each cap contained standard cornmeal medium. T-shape piece of filter paper (Whatman #1) was impregnated with 5 ul of acetone (control) or 5 microliters of 5% test odor, diluted in acetone. Traps were placed within a petri dish (100×15 mm, Fisher) containing 10 ml of 1% agarose to provide moisture. Ten wild-type Drosophila melanogaster flies 4-7 days old were used per trial, which lasted 48 hours by which time point nearly all flies in the assays had made a choice and were counted. Preference Index (P.I.)=(number of flies in treated trap−number in control trap)/(number of flies in treated+control traps).

The test system of assay [2] is Aedes aegypti. The experiment in a line: Aedes aegypti 2-choice landing assay (two-choice heat assay). In kind it is in vivo. The following applies: compounds at 3% concentration; female Aedes aegypti; two heat sources at 37 C. as attractants; 5 minute trial. The procedure: In order to test the compounds in mosquitoes, a Two-choice heat assay in Aedes aegypti was performed. A pair of heat sources were prepared using 2 hand warmers fitted into a 100×15 mm petri dish base and covered with 15×15 cm polyester netting secured round the petri dish by a pair or 8 inch plastic cable ties (Gardner Bender, Milwaukee, Wis.) coupling. Excess netting material was trimmed off round the edges of the petri dish. The treatment chemical 500 μl was added at 3% concentration directly onto the netting and the two assembled dishes were placed inside a cage of 20 female A. aegypti mosquitoes. Total numbers of mosquito landings on the net covering of each dish were counted during the assay from video recordings of the 5 minute trial. The solvent and DEET positions were alternated between runs.

The test system of assay [3] is Aedes aegypti. Nature of the assay: Aedes aegypti 1-choice landing assay (heat source attractant). The following applies: compounds at 3% concentration; female Aedes aegypti; one heat source at 37 C. as attractant. In kind it is in vivo.
Assay [4] deals with Drosophila melanogaster. The experiment in a line: Drosophila melanogaster T-maze assay. In kind it is in vivo. The following applies: compounds at 5% concentration; average of 3 trials; negative P.I. indicates repellency. The procedure: T-maze assay was used to test selected compounds. 4-7 day old starved wild-type flies of Drosophila melanogaster (20 males plus 20 females/trial) were tested. Under a chemical hood, 10 ul of solvent and 10 ul of test chemical were applied onto filter paper placed in control tubes and test tubes. The flies were loaded into the elevator of a T-maze apparatus and lowered into position where they could make a choice between the solvent tube and the test chemical tube. After allowing flies to make choice for 1 minute in dark, the elevator was closed and number of flies in each tube was counted. Preference Index (P.I.)=(#flies in test arm−#flies in control arm)/(#flies in test arm+#flies in control arm). The results presented in Table 2 report the average Preference Index from 3 independent trials.

The subject of assay [5] is Aedes aegypti females. The experiment in a line: Modified arm-in-cage assay. In kind it is in vivo. The conditions noted are these: 3% 4-methyl piperidine on filter paper adjoining netted landing window of glove. The text has this: FIG. […] (2a) Control and 4-MP treated gloves; (2b) Mean numbers of landings within minutes 2-5 of the assay. N=4 trials, ˜40 mosquitoes/trial.
The identification of these compounds started with understanding the biochemical, spacial charge density and other biochemical and physical factors aside from straight chemical structure for imparting the activity with existing DEET-like chemical structure and are therefore studying just DEET-like properties there were limits in finding completely novel classes of repellents that are not structurally related to DEET. Additional properties were then added. […] Olfactory avoidance to DEET is active over a short range (˜1 cm) and mosquitoes are not repelled beyond the immediate vicinity. Therefore, a modified arm-in-cage assay was developed where a low concentration of 4-MP can be applied to filter paper pieces adjoining the netted landing window of the glove (FIG. 2a). […]

For assay [6], the system named is mosquitoes. The conditions noted are these: cited from earlier work.

`c1ccc2c(c1)CCCN2` [1,2,3,4-Tetrahydroquinoline]: the “P.I. (mean preference index)” value in assay [1] is reported as −0.74; in assay [2] it was −0.9965. The “Average % Repellency” value in assay [3] turned out to be 99.82%.

Take `CCCCC1CO1` (centres unmarked) [1,2-Epoxyhexane]: in assay [4], the “P.I. (mean preference index)” value is reported as −0.2.

Regarding `CCN1CCCC1=O` [1-Ethyl-2-pyrrolidone], the “P.I. (mean preference index)” value in assay [1] is −0.12.

As for `CC1=CCC=CC1` [1-methyl-1,4-cyclohexadiene], the results for the “P.I. (mean preference index)” value in assay [4] and in assay [2] were −0.76 and −0.1584, respectively. In assay [3], the “Average % Repellency” value was 27.01%.

Turning to `CC(C)CC1OCC(C)O1` (centres unmarked) [2-Isobutyl-4-methyl-1,3-dioxolane], the “P.I. (mean preference index)” value in assay [4] was −0.3; in assay [2], −0.2189. The “Average % Repellency” value in assay [3] is recorded as 35.92%.

As for `CC1CCCO1` (centres unmarked) [2-methyl tetrahydrofuran], in assay [2], the “P.I. (mean preference index)” value is −0.1815. Also, the “Average % Repellency” value in assay [3] came to 29.78%.

Take `C1=COCCC1` [3.4-Dihydro-2H-pyran, 3,4-Dihydro-2H-pyran]: the “P.I. (mean preference index)” value in assay [4] is reported as −0.88.

On to `CC1=C(O)C(=O)C(C)O1` (centres unmarked) [4-Hydroxy-2,5-Dimethyl-3(2H)-Furanone], for which, in assay [1], the “P.I. (mean preference index)” value is given as −0.24.

For `CC1CC=CCC1` (centres unmarked) [4-methyl cyclohexene], the “P.I. (mean preference index)” value in assay [2] was −0.8265. Moreover, the “Average % Repellency” value in assay [3] was 90.39%.

As to `CC1CCNCC1` [4-methyl piperidine], the “Repellency from skin-exposed net window” value in assay [5] is on record as “effectively repel mosquitoes”.

In the case of `CCN(CC)C(=O)c1cccc(C)c1` [DEET, N,N-Diethyl-m-toluamide], the “Range over which olfactory avoidance is active” value in assay [6] was approximately 1 cm.

`C1=COCCC1` [Dihydropyran]: the “P.I. (mean preference index)” value in assay [2] is recorded as −0.2819.

For `CCC1=C(O)C(=O)CC1` [Ethyl cyclopentenolone], in assay [2], the “P.I. (mean preference index)” value is −0.7423. Moreover, the “Average % Repellency” value in assay [3] is recorded as 77.44%.

As to `CC1COC(C)(C)O1` (centres unmarked) [Propylene glycol acetone ketal], the “P.I. (mean preference index)” value in assay [4] was −0.09.

`COC(=O)Cc1ccc(C(C)(C)C)cc1` [methyl 2-(4-tert-butylphenyl)acetate]: the “P.I. (mean preference index)” value in assay [1] was −0.14.

As to Isopropyl Quinoline, the “P.I. (mean preference index)” value in assay [4] is recorded as −0.17. Moreover, the “Average % Repellency” value in assay [3] is recorded as 96.36%.
